This note sets out measurements from patent US11753395B2 (Kinnate Biopharma Inc., priority 2021, dated 2023).

SMILES strings stand for the structures.

One experiment has as its target T1, Ba/F3-TPR-MET cells (Homo sapiens, UniProt P08581).
T1 construct: fused on or other part: P12270 (Nucleoprotein TPR)
The experiment in a line: CellTiter-Glo Cell Viability Assay, Ba/F3-TPR-MET. Conditions: 72 hours. It counts as cell-based. The procedure, abridged:
(§1)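 Ba/F3 cells carrying TPR-MET or TPR-MET-D1228N, 3000 per well, were exposed for 72 h at 37 °C to 9-point 3-fold compound dilutions at 0.1% DMSO. Viability was read as ATP by CellTiter-Glo 2.0 luminescence, and IC50 values came from curve fitting.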

The target in a further experiment is T2, MET D1228N (Homo sapiens, UniProt P08581, D1228N).
T2 construct: purchased Signalchem M52-12IG
T2 sequence (P08581 25-1390 D1228N): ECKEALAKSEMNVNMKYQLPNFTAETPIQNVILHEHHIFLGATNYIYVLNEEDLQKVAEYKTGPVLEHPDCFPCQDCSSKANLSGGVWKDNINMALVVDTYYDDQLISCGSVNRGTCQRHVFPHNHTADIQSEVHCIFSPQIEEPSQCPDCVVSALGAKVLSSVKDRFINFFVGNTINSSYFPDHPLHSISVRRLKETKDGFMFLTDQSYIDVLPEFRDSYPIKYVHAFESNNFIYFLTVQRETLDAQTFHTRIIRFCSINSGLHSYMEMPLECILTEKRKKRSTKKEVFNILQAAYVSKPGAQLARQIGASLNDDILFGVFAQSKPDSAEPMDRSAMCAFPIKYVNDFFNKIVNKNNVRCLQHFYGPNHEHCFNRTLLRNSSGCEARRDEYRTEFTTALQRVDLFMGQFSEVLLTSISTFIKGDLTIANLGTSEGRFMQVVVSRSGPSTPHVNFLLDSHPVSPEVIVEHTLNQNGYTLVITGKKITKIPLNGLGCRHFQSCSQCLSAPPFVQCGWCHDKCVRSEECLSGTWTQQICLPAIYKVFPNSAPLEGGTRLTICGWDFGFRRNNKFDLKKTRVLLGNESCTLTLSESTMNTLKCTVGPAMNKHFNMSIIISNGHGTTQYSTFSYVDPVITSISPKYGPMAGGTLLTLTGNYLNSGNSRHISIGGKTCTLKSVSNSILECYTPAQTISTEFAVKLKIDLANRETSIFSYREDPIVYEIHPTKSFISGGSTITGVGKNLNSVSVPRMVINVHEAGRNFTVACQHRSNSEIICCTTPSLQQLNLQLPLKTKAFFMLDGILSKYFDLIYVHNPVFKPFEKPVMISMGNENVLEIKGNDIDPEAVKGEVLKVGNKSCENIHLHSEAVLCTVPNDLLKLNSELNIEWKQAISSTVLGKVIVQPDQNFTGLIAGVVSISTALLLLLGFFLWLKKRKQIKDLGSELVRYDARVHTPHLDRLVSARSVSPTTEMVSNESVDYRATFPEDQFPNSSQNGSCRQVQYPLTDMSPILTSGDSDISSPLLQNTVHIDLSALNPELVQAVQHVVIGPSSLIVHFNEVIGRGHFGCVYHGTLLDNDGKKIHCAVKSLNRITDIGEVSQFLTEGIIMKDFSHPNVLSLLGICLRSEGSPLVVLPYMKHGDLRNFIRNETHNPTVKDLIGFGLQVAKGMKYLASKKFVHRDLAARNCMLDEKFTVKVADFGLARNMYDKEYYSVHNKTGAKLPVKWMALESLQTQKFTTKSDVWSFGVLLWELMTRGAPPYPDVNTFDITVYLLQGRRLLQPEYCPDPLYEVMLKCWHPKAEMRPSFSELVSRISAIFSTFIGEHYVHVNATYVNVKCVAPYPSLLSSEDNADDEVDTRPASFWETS
Description: MET D1228N Mobility Shift Assay. The settings on record: biochemical assay IC50; 100 μM ATP, 60 minute kinase reaction. The method, boiled down: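 Enzyme at 0.313 nM preincubated 30 min at room temperature with 1.5 μM FAM-labelled peptide and 10 mM MgCl2 in HEPES buffer with DTT; reaction started with 100 μM ATP, run 60 min, stopped with EDTA. Substrate/product separated by microfluidic mobility shift; IC50 from inhibition of % conversion.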

Another experiment has as its target T3, MET (Homo sapiens, UniProt P08581).
T3 construct: purchased Carna Biosciences 08-151
Description: MET Mobility Shift Assay. The settings on record: biochemical assay IC50; 100 μM ATP, 60 minute kinase reaction. The method, boiled down: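 Recombinant MET at 0.625 nM was pre-incubated 30 min at room temperature with 1.5 μM FLPeptide30 and 10 mM MgCl2 in HEPES buffer with DTT. The reaction was started with 100 μM ATP, ran 60 min, and was stopped with EDTA. Microfluidic mobility-shift % conversion gave IC50.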

For experiment [1], the target named is T4, Ba/F3-TPR-MET-D1228N cells (Homo sapiens, UniProt P08581, D1228N, cells depend on it).
T4 construct: fused on or other part: P12270 (Nucleoprotein TPR)
T4 sequence (P08581 whole entry D1228N, the tested form may be a part): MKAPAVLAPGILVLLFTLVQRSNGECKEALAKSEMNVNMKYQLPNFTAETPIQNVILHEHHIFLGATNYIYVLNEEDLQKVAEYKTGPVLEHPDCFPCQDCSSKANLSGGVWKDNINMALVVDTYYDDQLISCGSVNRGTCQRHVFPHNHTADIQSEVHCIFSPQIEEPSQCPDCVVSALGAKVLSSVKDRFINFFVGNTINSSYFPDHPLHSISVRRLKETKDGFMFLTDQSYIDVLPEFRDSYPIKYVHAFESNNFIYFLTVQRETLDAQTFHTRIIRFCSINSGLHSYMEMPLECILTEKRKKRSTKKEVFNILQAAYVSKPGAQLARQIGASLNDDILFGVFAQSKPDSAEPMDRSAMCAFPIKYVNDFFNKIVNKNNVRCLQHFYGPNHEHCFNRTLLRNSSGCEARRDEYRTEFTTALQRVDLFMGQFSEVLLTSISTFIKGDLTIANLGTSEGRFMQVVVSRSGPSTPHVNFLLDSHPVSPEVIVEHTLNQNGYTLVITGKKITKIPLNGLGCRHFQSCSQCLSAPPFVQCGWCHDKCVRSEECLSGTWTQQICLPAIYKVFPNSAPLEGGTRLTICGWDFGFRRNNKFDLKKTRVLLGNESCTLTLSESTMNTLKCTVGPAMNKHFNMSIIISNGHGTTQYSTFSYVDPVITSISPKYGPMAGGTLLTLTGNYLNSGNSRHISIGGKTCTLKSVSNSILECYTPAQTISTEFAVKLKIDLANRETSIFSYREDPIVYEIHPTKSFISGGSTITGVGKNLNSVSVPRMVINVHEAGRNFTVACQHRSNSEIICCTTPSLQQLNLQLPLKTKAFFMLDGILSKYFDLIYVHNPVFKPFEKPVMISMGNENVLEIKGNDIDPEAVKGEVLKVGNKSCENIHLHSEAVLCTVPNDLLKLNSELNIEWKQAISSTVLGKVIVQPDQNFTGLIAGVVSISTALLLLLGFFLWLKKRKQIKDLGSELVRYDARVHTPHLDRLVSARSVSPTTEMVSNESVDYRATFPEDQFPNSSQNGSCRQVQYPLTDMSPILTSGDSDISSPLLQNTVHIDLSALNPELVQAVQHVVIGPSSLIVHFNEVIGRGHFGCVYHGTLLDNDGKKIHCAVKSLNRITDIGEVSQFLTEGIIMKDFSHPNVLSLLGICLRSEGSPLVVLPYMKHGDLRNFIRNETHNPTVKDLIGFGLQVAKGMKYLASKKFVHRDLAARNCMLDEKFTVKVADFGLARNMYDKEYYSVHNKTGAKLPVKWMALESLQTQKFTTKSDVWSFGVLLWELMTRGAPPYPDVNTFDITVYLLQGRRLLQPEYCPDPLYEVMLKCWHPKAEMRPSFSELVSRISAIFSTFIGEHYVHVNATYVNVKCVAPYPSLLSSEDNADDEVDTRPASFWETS
Description: CellTiter-Glo Cell Viability Assay, Ba/F3-TPR-MET-D1228N. The settings on record: 72 hours. It counts as cell-based. The procedure, abridged: as §1
For orientation: Cellular ATP, detected with luciferase, serves as a proxy for viable cell number.

T3 sequence (P08581 25-1390): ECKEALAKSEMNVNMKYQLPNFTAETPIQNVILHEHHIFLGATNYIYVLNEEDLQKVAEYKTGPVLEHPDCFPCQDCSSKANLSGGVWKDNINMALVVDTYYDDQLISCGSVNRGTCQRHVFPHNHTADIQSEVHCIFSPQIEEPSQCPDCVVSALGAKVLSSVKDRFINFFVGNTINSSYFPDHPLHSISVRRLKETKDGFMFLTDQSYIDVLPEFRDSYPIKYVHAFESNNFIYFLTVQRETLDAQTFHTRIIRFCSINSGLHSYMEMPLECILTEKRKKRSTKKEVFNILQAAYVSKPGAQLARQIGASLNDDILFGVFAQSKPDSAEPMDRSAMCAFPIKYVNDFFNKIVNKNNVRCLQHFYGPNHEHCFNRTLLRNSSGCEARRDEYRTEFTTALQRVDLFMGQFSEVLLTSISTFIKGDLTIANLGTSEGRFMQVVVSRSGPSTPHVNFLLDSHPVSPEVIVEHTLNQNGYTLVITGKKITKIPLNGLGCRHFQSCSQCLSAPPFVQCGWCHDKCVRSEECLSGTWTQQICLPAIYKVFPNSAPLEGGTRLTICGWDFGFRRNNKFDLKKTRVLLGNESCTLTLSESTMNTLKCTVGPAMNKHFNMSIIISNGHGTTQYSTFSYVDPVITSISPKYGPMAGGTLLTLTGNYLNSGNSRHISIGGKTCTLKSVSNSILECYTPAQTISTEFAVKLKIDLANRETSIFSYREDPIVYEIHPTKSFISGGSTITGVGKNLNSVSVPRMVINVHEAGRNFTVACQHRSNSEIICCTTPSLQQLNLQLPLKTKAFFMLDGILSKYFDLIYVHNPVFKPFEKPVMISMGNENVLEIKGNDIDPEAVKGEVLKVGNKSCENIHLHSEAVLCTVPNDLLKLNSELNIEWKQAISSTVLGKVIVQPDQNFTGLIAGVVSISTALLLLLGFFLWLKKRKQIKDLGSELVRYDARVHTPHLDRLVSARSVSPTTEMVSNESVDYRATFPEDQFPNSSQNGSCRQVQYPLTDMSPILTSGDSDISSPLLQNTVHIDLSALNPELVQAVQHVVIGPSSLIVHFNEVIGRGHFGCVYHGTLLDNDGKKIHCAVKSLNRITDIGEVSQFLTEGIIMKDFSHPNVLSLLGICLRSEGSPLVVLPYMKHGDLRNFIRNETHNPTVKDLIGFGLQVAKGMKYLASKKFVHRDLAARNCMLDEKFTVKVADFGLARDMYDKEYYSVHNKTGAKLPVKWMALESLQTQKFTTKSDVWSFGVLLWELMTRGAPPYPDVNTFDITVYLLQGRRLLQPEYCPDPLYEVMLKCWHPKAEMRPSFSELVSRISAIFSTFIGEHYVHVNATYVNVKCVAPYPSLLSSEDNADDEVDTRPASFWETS

With `COCCOc1cc2nccc(Oc3c(F)cc(NC(=O)c4cnccc4OC)cc3F)c2nc1OC` [Example 137, N-(3,5-difluoro-4-((6-methoxy-7-(2-methoxyethoxy)-1,5-naphthyridin-4-yl)oxy)phenyl)-4-methoxypyridine-3-carboxamide], the EC50 (at Ba/F3-TPR-MET cells; in experiment [1]) was at most 0.1 µM each time. In addition, the IC50 on MET D1228N and on MET was at most 0.1 µM throughout.

For `CNCCOc1cc2nccc(Oc3c(F)cc(NC(=O)c4cnccc4OCC(C)(C)O)cc3F)c2cc1OC` [Example 66, N-(3,5-difluoro-4-((6-methoxy-7-(2-(methylamino)ethoxy)quinolin-4-yl)oxy)phenyl)-4-(2-hydroxy-2-methylpropoxy)pyridine-3-carboxamide], the concentration giving a half-maximal response (EC50) (on Ba/F3-TPR-MET cells; in experiment [1]) was 0.1 to 1 µM each time. The concentration for half-maximal inhibition (IC50) at MET D1228N and at MET was at most 0.1 µM each time.

For the compound `CCOc1ccncc1C(=O)Nc1cc(F)c(Oc2ccnc3cc(OCCCN4CCOCC4)c(OC)cc23)c(F)c1` [Example 28, N-(3,5-difluoro-4-((6-methoxy-7-(3-morpholinopropoxy)quinolin-4-yl)oxy)phenyl)-4-ethoxypyridine-3-carboxamide], the concentration for a half-maximal effect (EC50) (at Ba/F3-TPR-MET cells; in experiment [1]) was at most 0.1 µM each time. For the same compound, the 50% inhibitory concentration (IC50) on MET D1228N and at MET was at most 0.1 µM in each case.

Consider `CNCCOc1cc2nccc(Oc3c(F)cc(NC(=O)c4cnccc4OCC(F)F)cc3F)c2cc1OC` [Example 60, N-[3,5-difluoro-4-({6-methoxy-7-[2-(methylamino)ethoxy]quinolin-4-yl}oxy)phenyl]-4-(2,2-difluoroethoxy)pyridine-3-carboxamide], for which the 50% effective concentration (EC50) (at Ba/F3-TPR-MET cells; in experiment [1]) was at most 0.1 µM each time. Also, the IC50 on MET D1228N and at MET was at most 0.1 µM in each case.

Regarding `CNCCOc1ccc2c(Oc3c(F)cc(NC(=O)c4cnc(Cl)cc4OC4CC4)cc3F)ccnc2c1` [Example 113, 6-chloro-4-cyclopropoxy-N-[3,5-difluoro-4-({7-[2-(methylamino)ethoxy]quinolin-4-yl}oxy)phenyl]pyridine-3-carboxamide], the EC50 (at Ba/F3-TPR-MET cells; in experiment [1]) was at most 0.1 µM throughout. In addition, the half-maximal inhibitory concentration (IC50) on MET D1228N and on MET was at most 0.1 µM each time.

For `COc1cc2nccc(Oc3c(F)cc(NC(=O)c4nnccc4OC4CC4)cc3F)c2cc1OC` [Example 149, 4-cyclopropoxy-N-(4-((6,7-dimethoxyquinolin-4-yl)oxy)-3,5-difluorophenyl)pyridazine-3-carboxamide], the values for the 50% effective concentration (EC50) (on Ba/F3-TPR-MET cells; in experiment [1]) were 0.1 to 1 µM and at most 0.1 µM, respectively. In addition, the 50% inhibitory concentration (IC50) at MET D1228N and at MET was at most 0.1 µM each time.

On to `CCOc1ccncc1C(=O)Nc1cc(F)c(Oc2ccnc3cc(OCCNC)c(OC)cc23)c(F)c1` [Example 5, N-(3,5-difluoro-4-((6-methoxy-7-(2-(methylamino)ethoxy)quinolin-4-yl)oxy)phenyl)-4-ethoxypyridine-3-carboxamide], for which the EC50 (on Ba/F3-TPR-MET cells; in experiment [1]) was at most 0.1 µM throughout. Besides, the concentration for half-maximal inhibition (IC50) at MET D1228N and on MET was at most 0.1 µM each time.

In the case of `COc1cc2nccc(Oc3c(F)cc(NC(=O)c4c(OCC(F)F)ccnc4F)cc3F)c2cc1OCCO` [Example 142, N-(3,5-difluoro-4-((6-(2-hydroxyethoxy)-7-methoxyquinolin-4-yl)oxy)phenyl)-4-(2,2-difluoroethoxy)-2-fluoropyridine-3-carboxamide], the EC50 (at Ba/F3-TPR-MET cells; in experiment [1]) was at most 0.1 µM each time. The IC50 on MET D1228N and on MET was at most 0.1 µM in each case.

With `CNCCOc1cc2nccc(Oc3c(F)cc(NC(=O)c4cnccc4OC[C@@H](C)O)cc3F)c2cc1OC` [Example 65, (R)-N-(3,5-difluoro-4-((6-methoxy-7-(2-(methylamino)ethoxy)quinolin-4-yl)oxy)phenyl)-4-(2-hydroxypropoxy)pyridine-3-carboxamide], the results for the half-maximal effective concentration (EC50) (at Ba/F3-TPR-MET cells; in experiment [1]) were 0.1 to 1 µM and at most 0.1 µM, respectively. Further, the IC50 on MET D1228N and on MET was at most 0.1 µM in each case.

Turning to `COc1ccncc1C(=O)Nc1cc(F)c(Oc2ccnc3cc(OCCO)c(OC)nc23)c(F)c1` [Example 138, N-(3,5-difluoro-4-((7-(2-hydroxyethoxy)-6-methoxy-1,5-naphthyridin-4-yl)oxy)phenyl)-4-methoxypyridine-3-carboxamide], the EC50 (on Ba/F3-TPR-MET cells; in experiment [1]) was at most 0.1 µM each time. Also, the IC50 at MET D1228N and on MET was at most 0.1 µM throughout.

In the case of `COc1cc2nccc(Oc3c(F)cc(NC(=O)c4ccncc4OC)cc3F)c2cc1O[C@@H](C)CO` [Example 127, (S)-N-(3,5-difluoro-4-((6-((1-hydroxypropan-2-yl)oxy)-7-methoxyquinolin-4-yl)oxy)phenyl)-3-methoxyisonicotinamide], the EC50 (at Ba/F3-TPR-MET cells; in experiment [1]) was at most 0.1 µM in each case. Also, the 50% inhibitory concentration (IC50) on MET D1228N and at MET was at most 0.1 µM throughout.

As to `C#CCOc1ccncc1C(=O)Nc1cc(F)c(Oc2ccnc3cc(OCCNC)c(OC)cc23)c(F)c1` [Example 73, N-[3,5-difluoro-4-({6-methoxy-7-[2-(methylamino)ethoxy]quinolin-4-yl}oxy)phenyl]-4-(prop-2-yn-1-yloxy)pyridine-3-carboxamide], the EC50 (at Ba/F3-TPR-MET cells; in experiment [1]) was at most 0.1 µM throughout. In addition, the 50% inhibitory concentration (IC50) on MET D1228N and at MET was at most 0.1 µM each time.

`CNCCOc1cc2nccc(Oc3c(F)cc(NC(=O)c4cncnc4OC4CC4)cc3F)c2cc1OC` [Example 76, 4-cyclopropoxy-N-[3,5-difluoro-4-({6-methoxy-7-[2-(methylamino)ethoxy]quinolin-4-yl}oxy)phenyl]pyrimidine-5-carboxamide]: the EC50 (at Ba/F3-TPR-MET cells; in experiment [1]) was 0.1 to 1 µM in each case. Moreover, the IC50 on MET D1228N and at MET was at most 0.1 µM each time.

Regarding `COc1ccncc1C(=O)Nc1cc(F)c(Oc2ccnc3ccc(O[C@@H](C)CO)cc23)c(F)c1` [Example 130, (S)-N-(3,5-difluoro-4-((6-((1-hydroxypropan-2-yl)oxy)quinolin-4-yl)oxy)phenyl) -4-methoxynicotinamide], the concentration giving a half-maximal response (EC50) – broadly, the concentration at which the effect is half-maximal – is 0.1 to 1 µM on Ba/F3-TPR-MET cells and at most 0.1 µM in experiment [1]. Moreover, the half-maximal inhibitory concentration (IC50) on MET D1228N and at MET was at most 0.1 µM throughout.

As to `CNCCOc1cc2nccc(Oc3c(F)cc(NC(=O)c4cnccc4OC4CC4)cc3F)c2cc1OC` [Example 54, 4-cyclopropoxy-N-[3,5-difluoro-4-({6-methoxy-7-[2-(methylamino)ethoxy]quinolin-4-yl}oxy)phenyl]pyridine-3-carboxamide], the EC50 (on Ba/F3-TPR-MET cells; in experiment [1]) was at most 0.1 µM each time. In addition, the IC50 at MET D1228N and at MET was at most 0.1 µM in each case.

Take `CCOc1ccncc1C(=O)Nc1cc(F)c(Oc2ccnc3cc(OCCCN(C)C)c(OC)cc23)cc1F` [Example 23, N-(4-((7-(3-(dimethylamino)propoxy)-6-methoxyquinolin-4-yl)oxy)-2,5-difluorophenyl)-4-ethoxypyridine-3-carboxamide]: the EC50 on Ba/F3-TPR-MET cells was 0.1 to 1 µM; in experiment [1] it was at most 0.1 µM. In addition, the IC50 at MET D1228N and on MET was at most 0.1 µM in each case.

Take `CNCCOc1ccc2c(Oc3c(F)cc(NC(=O)c4cnc(F)cc4OC4CC4)cc3F)ccnc2c1` [Example 109, 4-cyclopropoxy-N-(3,5-difluoro-4-((7-(2-(methylamino)ethoxy)quinolin-4-yl)oxy)phenyl)-6-fluoropyridine-3-carboxamide]: the concentration giving a half-maximal response (EC50) (at Ba/F3-TPR-MET cells; in experiment [1]) was at most 0.1 µM each time. Besides, the concentration for half-maximal inhibition (IC50) at MET D1228N and on MET was at most 0.1 µM throughout.

Take `COCCOc1cnc2c(Oc3c(F)cc(NC(=O)c4ccccc4F)cc3F)ccnc2c1` [Example 140, N-(3,5-difluoro-4-((7-(2-methoxyethoxy)-1,5-naphthyridin-4-yl)oxy)phenyl)-2-fluorobenzamide]: the EC50 (at Ba/F3-TPR-MET cells; in experiment [1]) was at most 0.1 µM throughout. Also, the IC50 on MET D1228N and on MET was at most 0.1 µM in each case.

Regarding `CNCCOc1cc2nccc(Oc3c(F)cc(NC(=O)c4cnccc4OC[C@H](C)F)cc3F)c2cc1OC` [Example 62, N-[3,5-difluoro-4-({6-methoxy-7-[2-(methylamino)ethoxy]quinolin-4-yl}oxy)phenyl]-4-[(2S)-2-fluoropropoxy]pyridine-3-carboxamide], the EC50 (at Ba/F3-TPR-MET cells; in experiment [1]) was at most 0.1 µM in each case. For the same compound, the IC50 on MET D1228N and on MET was at most 0.1 µM in each case.

As for `CNCCOc1cc2nccc(Oc3ccc(NC(=O)c4cnccc4OC)c(F)c3F)c2cc1OC` [Example 14, N-(2,3-difluoro-4-((6-methoxy-7-(2-(methylamino)ethoxy)quinolin-4-yl)oxy)phenyl)-4-methoxypyridine-3-carboxamide], the EC50 (at Ba/F3-TPR-MET cells; in experiment [1]) was 0.1 to 1 µM throughout. For the same compound, the IC50 at MET D1228N and on MET was at most 0.1 µM in each case.

`CCCOc1ccncc1C(=O)Nc1cc(F)c(Oc2ccnc3cc(OCCNC)c(OC)cc23)cc1F` [Example 52, N-(2,5-difluoro-4-((6-methoxy-7-(2-(methylamino)ethoxy)quinolin-4-yl)oxy)phenyl)-4-propoxypyridine-3-carboxamide]: the half-maximal effective concentration (EC50) (on Ba/F3-TPR-MET cells; in experiment [1]) was 0.1 to 1 µM throughout. For the same compound, the concentration for half-maximal inhibition (IC50) on MET D1228N and on MET was at most 0.1 µM in each case.
